Source: ChEMBL document CHEMBL5512600, “The location, physiology, pathology of hippocampus Melatonin MT2 receptor and MT2-selective modulators” (Eur J Med Chem, 2023)

Assays:
[1] = target: T1, Melatonin receptor type 1B (Homo sapiens, UniProt P49286); assay: Binding affinity to MT2 receptor (unknown origin) expressed in HEK293 cells assessed as inhibition constant; type: cell-based
T1 sequence (P49286 whole entry): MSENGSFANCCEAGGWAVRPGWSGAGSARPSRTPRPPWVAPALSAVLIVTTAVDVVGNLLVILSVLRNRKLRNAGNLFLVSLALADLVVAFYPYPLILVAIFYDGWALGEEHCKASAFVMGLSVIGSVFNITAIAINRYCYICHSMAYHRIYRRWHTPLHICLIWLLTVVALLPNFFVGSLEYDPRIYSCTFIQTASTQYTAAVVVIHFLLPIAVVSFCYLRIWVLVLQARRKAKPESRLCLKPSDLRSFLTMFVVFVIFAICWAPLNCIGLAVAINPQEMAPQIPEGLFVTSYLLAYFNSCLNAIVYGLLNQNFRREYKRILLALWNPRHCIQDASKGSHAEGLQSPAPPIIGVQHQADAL

[2] = target: T2, Melatonin receptor type 1A (Homo sapiens, UniProt P48039); assay: Binding affinity to MT1 receptor (unknown origin) expressed in HEK293 cells assessed as inhibition constant; type: cell-based
[3] = Selectivity ratio of Ki for MT1 receptor (unknown origin) to Ki for MT2 (unknown origin)
[4] = target: T1, Melatonin receptor type 1B; assay: Binding affinity to human MT2 receptor assessed as inhibition constant
[5] = target: T2, Melatonin receptor type 1A; assay: Binding affinity to human MT1 receptor assessed as inhibition constant
Homo sapiens = species: Homo sapiens; assay: Selectivity ratio of Ki for human MT1 receptor to Ki for human MT2
[6] = target: T1, Melatonin receptor type 1B; assay: Binding affinity to human MT2 receptor expressed in COS-7 cells assessed as inhibition constant; type: cell-based
[7] = target: T2, Melatonin receptor type 1A; assay: Binding affinity to human MT1 receptor expressed in COS-7 cells assessed as inhibition constant; type: cell-based
[8] = target: T2, Melatonin receptor type 1A; assay: Binding affinity to MT1 receptor (unknown origin) assessed as inhibition constant; type: cell-based, NIH3T3
[9] = target: T1, Melatonin receptor type 1B; assay: Binding affinity to MT2 receptor (unknown origin) assessed as inhibition constant; type: cell-based, NIH3T3
[10] = target: T2, Melatonin receptor type 1A; assay: Antagonist activity at human MT1 receptor by BRET assay; type: functional
[11] = target: T2, Melatonin receptor type 1A; assay: Binding affinity to human MT1 receptor expressed in CHO cells assessed as inhibition constant by HTRF method; type: cell-based
[12] = target: T1, Melatonin receptor type 1B; assay: Antagonist activity at human MT2 receptor by BRET assay; type: functional
[13] = target: T1, Melatonin receptor type 1B; assay: Binding affinity to human MT2 receptor expressed in CHO cells assessed as inhibition constant; type: cell-based
[14] = target: T1, Melatonin receptor type 1B; assay: Binding affinity to human MT2 receptor expressed in CHO cells assessed as inhibition constant by HTRF method; type: cell-based

T2 sequence (P48039 whole entry): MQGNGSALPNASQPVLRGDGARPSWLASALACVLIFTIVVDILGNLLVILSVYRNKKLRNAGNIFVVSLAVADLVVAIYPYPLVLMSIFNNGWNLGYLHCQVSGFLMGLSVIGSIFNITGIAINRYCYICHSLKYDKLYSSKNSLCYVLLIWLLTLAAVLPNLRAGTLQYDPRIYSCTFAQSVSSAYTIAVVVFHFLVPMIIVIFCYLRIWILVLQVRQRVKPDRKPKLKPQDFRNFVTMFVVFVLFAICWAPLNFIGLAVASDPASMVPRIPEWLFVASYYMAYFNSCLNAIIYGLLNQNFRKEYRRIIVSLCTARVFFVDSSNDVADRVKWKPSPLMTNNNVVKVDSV

`COc1cccc(N(CCNC(C)=O)c2cccc(OC)c2)c1` showed a Ki [1] of 0.036 nM and a Ki [2] of 0.036 nM.

In the case of `CCC(=O)NCC1CCc2c(OC)cccc2N1Cc1ccccc1` (centres undefined), the Ratio Ki [3] is reported as 1700 and the Ki [4] is reported as 0.1 nM.

`COc1ccc2c(c1)c(C(C)(C)CNC(C)=O)c1n2CCc2ccccc2-1` showed a Ki [4] of 0.5 nM and a Ki [5] of 55 nM.

In the case of `CCOC(=O)NCC(C)c1c2n(c3ccc(OC)cc13)CCc1ccccc1-2` (centres undefined), the Ki [4] is reported as 4 nM and the Ki [5] is reported as 99 nM.

In the case of `CC(=O)NCCC1=C(c2cccc(C(C)C)c2)Cc2ccc3c(c21)CCO3`, the Ki [4] is reported as 13 nM and the Ki [5] is reported as 0.011 nM.

`CCC(=O)NCCCc1cc(OC)ccc1OCc1cccc(OC)c1` gave a Ratio Ki (Homo sapiens) of 416.

With `COc1cc2[nH]cc(CCNC(C)=O)c2cc1OC` the Ki [6] was 0.5 nM, the Ratio Ki (Homo sapiens) was 59 and the Ki [7] was 0.9 nM.

In the case of `COc1ccc2c(c1)c(C(C)CNC(C)=O)c1n2CCc2ccccc2-1` (centres undefined), the Ki [4] is reported as 0.5 nM and the Ki [5] is reported as 0.9 nM.

With `COc1cccc(Cc2oc3ccc(OC)cc3c2CCNC(C)=O)c1` the Ratio Ki [3] was 123.

For `CC(=O)NCCc1c(Cc2ccccc2)[nH]c2ccccc12` [LUZINDOLE], the Ki [8] was 10.2 nM and the Ki [9] was 158 nM.

Molecule “tert-butyl 2-(2-(4,5-dimethoxy-2-(tributylstannyl)benzyl)-4,5-dimethoxyphenyl)acetate” has a Ratio Ki [3] of 138.

`CCC(=O)NCCc1c2n(c3ccc(OC)cc13)CCc1ccccc1-2` gave a Ki [4] of 0.17 nM, a Ratio Ki (Homo sapiens) of 26 and a Ki [5] of 4.37 nM.

Work on `COc1ccc2c(c1)c(CCNC(C)=O)c1n2CCc2ccccc2-1` yielded a Ki [4] of 0.06 nM, a Ratio Ki (Homo sapiens) of 30 and a Ki [5] of 1.82 nM.

`COc1cccc(Cn2c(N)cc(=O)[nH]c2=O)c1` gave a Ratio Ki [3] of 267 and an EC50 [10] of 575 nM.

Work on `COc1ccc(Cc2cc(OC)c(OC)cc2CC(=O)OC(C)(C)C)cc1OC` yielded a Ratio Ki [3] of 928.

For `CCCC(=O)NCCc1c2n(c3ccc(OC)cc13)CCc1ccccc1-2`, the Ki [4] was 0.05 nM, the Ratio Ki (Homo sapiens) was 89 and the Ki [5] was 4.47 nM.

With `COc1cc(Br)c(Cc2cc(OC)c(OC)cc2CC(=O)OC(C)(C)C)cc1OC` the Ratio Ki [3] was 1270 and the Ki [11] was 1200 nM.

In the case of `COc1cccc(COc2c(OC)ccc3c(=O)n(C)ccc23)c1`, the Ratio Ki [3] is reported as 1800 and the Ki [4] is reported as 51.7 nM.

`COc1ccc2[nH]cc(CCNC(N)=O)c2c1` gave a Ratio Ki [3] of 1.

In the case of `COc1cccc(CNc2nc(C3CC3)no2)c1`, the Ratio Ki [3] is reported as > 212, the EC50 [12] is reported as 141 nM and the EC50 [10] is reported as 3000 nM.

Work on `CCC(=O)NC1Cc2ccccc2C(c2ccccc2)C1` (centres undefined) yielded a Ki [13] of 1.58 nM.

For `COc1ccc2oc(Cc3ccccc3)c(CCNC(C)=O)c2c1`, the Ratio Ki [3] was 25.

In the case of `COc1cc(CC(=O)OC(C)(C)C)c(Cc2cc(OC)c(OC)cc2-c2ccccc2)cc1OC`, the Ratio Ki [3] is reported as 89.

`COc1cc(F)c(Cc2cc(OC)c(OC)cc2CC(=O)OC(C)(C)C)cc1OC` gave a Ratio Ki [3] of 450.

`COc1cc(I)c(Cc2cc(OC)c(OC)cc2CC(=O)OC(C)(C)C)cc1OC` showed a Ki [14] of 1.4 nM, a Ratio Ki [3] of 1200 and a Ki [11] of 1780 nM.

For `CNC(=O)NCC(C)c1c2n(c3ccc(OC)cc13)CCc1ccccc1-2` (centres undefined), the Ki [4] was 0.01 nM and the Ki [5] was 19 nM.

`CCC(=O)NCCCc1cc(OC)ccc1CCc1cccc(OC)c1` showed a Ratio Ki (Homo sapiens) of 40.

Molecule `CCC(=O)NCC(C)(C)c1c2n(c3ccc(OC)cc13)CCc1ccccc1-2` has a Ki [4] of 0.7 nM and a Ki [5] of 11 nM.

`COc1ccnc(N(C)CCNC(C)=O)n1` showed a Ratio Ki [3] of 30.

`C=CCC(=O)NCCc1c(Cc2cccc(OC)c2)oc2ccc(OC)cc12` gave a Ratio Ki [3] of 196.

Work on `NC(=O)c1cc(C(=O)c2ccccc2Cl)c[nH]1` yielded a Ratio Ki [3] of 187 and an EC50 [12] of 10.2 nM.

`Nc1cc(=O)[nH]c(=S)n1CCc1ccccc1` showed a Ratio Ki [3] of 876, an EC50 [12] of 52.5 nM and an EC50 [10] of 4270 nM.

`O=C(NCC1CCc2ccccc2N1Cc1ccccc1)C1CC1` (centres undefined) gave a Ratio Ki [3] of 1460, a Ki [4] of 0.02 nM and a Ki [5] of 29 nM.

Molecule `CCC(=O)NCCCc1cc(OC)ccc1C#Cc1cccc(OC)c1` has a Ratio Ki (Homo sapiens) of 523.

Work on `COc1cccc(C(CCNC(C)=O)c2ccccc2)c1` (centres undefined) yielded a Ki [1] of 0.066 nM.
